According to patent US5693640A, “Pyridazino-indole derivatives” (Merck, Sharp & Dohme, Ltd., priority 1994, dated 1997):

Legend:
[1] = test system: NMDA; experiment: Cortical slice studies: responses to NMDA in rat cortical slice; settings: calculated from righthand shift in the NMDA concentration-response curve, read-out: apparent equilibrium constant (Kb) in response to NMDA
Excerpt: (§1) The compounds useful in this invention potently and selectively block responses to NMDA and/or AMPA in a brain slice from rat cortex, and inhibit the binding of agonists and antagonists to the strychnine-insensitive site present on the NMDA receptor and/or AMPA binding to rat forebrain membranes.
The effects of compounds of use in the invention on responses to NMDA and AMPA can be assessed using the rat cortical slice as described by Wong et al., Proc. Natl. Acad. Sci. USA, 1986, 83, 7104. The apparent equilibrium constant (Kb) is calculated from the righthand shift in the NMDA or AMPA concentration-response curves produced by the compound under test.

[2] = target: T1, strychnine-insensitive site present on the NMDA receptor (Rattus norvegicus, UniProt P35439); experiment: Displacement of 3H-L-689,560 binding, rat forebrain membranes; settings: read-out: concentration required to displace 50% of the specific binding (IC50)
T1 construct: strychnine-insensitive site present on the NMDA receptor of rat forebrain membranes; from tissue; host or cells: rat forebrain membranes
Excerpt: as §1
The ability of test compounds to displace ^3 H-L-689,560 (trans-2-carboxy-5,7-dichloro-4-phenylaminocarbonylamino-1,2,3,4-tetrahydroquinoline) binding to the strychnine-insensitive site present on the NMDA receptor of rat forebrain membranes can be determined by the method of Grimwood et al., Proceedings of the British Pharmacological Society, July 1991, Abstract C78.

**Q.** Which results are given for `O=c1[nH]n(-c2ccccc2)c(=O)c2c1[nH]c1ccccc12` [Example 1, 2-Phenylpyridazino[4,5-b]indole-1,4-dione]?
**A.** Kb [1]: < 150 µM; IC50 [2]: < 50 µM
